Article PMC5127189 (Scientific Reports, 2016)

Key:
[1] = system: Hep-G2 cells; details: Hep-G2, 48 h; for Inhibitory rates (%): footnote a: 20 μM, footnotes b, c (salts, cisplatin) cut off
Method: (§1) The cytotoxic activity of the L^a–L^d and complexes 1–14 were tested against a panel of cell lines such as Hep-G2, NCI-H460, SK-OV-3, HCT-8, BEL-7402 cells, and one normal cell line, HL-7702, and cell viability was determined using the MTT assay. Cisplatin was used as the positive control.

[2] = system: HL-7702 cells; experiment: MTT cytotoxicity assay, normal cell line; format: cell-based, human; details: HL-7702, 48 h; for Inhibitory rates (%): footnote a: 20 μM, footnotes b, c (salts, cisplatin) cut off
Method: as §1

[3] = system: SK-OV-3 cells; experiment: MTT cytotoxicity assay; format: cell-based, human; details: SK-OV-3, 48 h; for Inhibitory rates (%): footnote a: 20 μM, footnotes b, c (salts, cisplatin) cut off
Method: as §1

[4] = system: NCI-H460 cells; experiment: MTT cytotoxicity assay; format: cell-based, human; details: NCI-H460, 48 h; for Inhibitory rates (%): footnote a: 20 μM, footnotes b, c (salts, cisplatin) cut off
Method: as §1

[5] = system: BEL-7402 cells; experiment: MTT cytotoxicity assay; format: cell-based, human; details: BEL-7402, 48 h; for Inhibitory rates (%): footnote a: 20 μM, footnotes b, c (salts, cisplatin) cut off
Method: as §1

[6] = system: HCT-8 cells; experiment: MTT cytotoxicity assay; format: cell-based, human; details: HCT-8, 48 h; for Inhibitory rates (%): footnote a: 20 μM, footnotes b, c (salts, cisplatin) cut off
Method: as §1

[7] = system: Pu27 (DNA, G4) TGGGGAGGGTGGGGAGGGTGGGGAAGG; experiment: fluorescent intercalator displacement (FID); set-up: unit not given here; details: thiazole orange displaced
[8] = system: c-kit-1 (DNA, G4) CGGGCGGGCACGAGGGAGGGT; experiment: fluorescent intercalator displacement (FID); set-up: unit not given here; details: thiazole orange displaced
[9] = system: c-kit-2 (DNA, G4) CGGGCGGGCGCTAGGGAGGGT; experiment: fluorescent intercalator displacement (FID); set-up: unit not given here; details: thiazole orange displaced
[10] = system: Pu22 (DNA, G4) TGAGGGTGGGTAGGGTGGGTAA; experiment: fluorescent intercalator displacement (FID); set-up: unit not given here; details: thiazole orange displaced
[11] = system: HTG21 (DNA, G4) GGGTTAGGGTTAGGGTTAGGG; experiment: fluorescent intercalator displacement (FID); set-up: unit not given here; details: thiazole orange displaced
[12] = system: ds26 (DNA, duplex) CAATCGGATCGAATTCGATCCGATTG; experiment: fluorescent intercalator displacement (FID); set-up: unit not given here; details: thiazole orange displaced
[13] = system: Pu27 (DNA, G4) TGGGGAGGGTGGGGAGGGTGGGGAAGG; experiment: fluorescent intercalator displacement (FID); details: K+ 100 mM (TBS); 10 mM Tris, pH 7.35 (TBS as defined in Table 4); thiazole orange displaced
[14] = system: Pu22 (DNA, G4) TGAGGGTGGGTAGGGTGGGTAA; experiment: fluorescent intercalator displacement (FID); details: K+ 100 mM (TBS); 10 mM Tris, pH 7.35 (TBS as defined in Table 4); thiazole orange displaced
[15] = system: c-kit-1 (DNA, G4) CGGGCGGGCACGAGGGAGGGT; experiment: fluorescent intercalator displacement (FID); details: K+ 100 mM (TBS); 10 mM Tris, pH 7.35 (TBS as defined in Table 4); thiazole orange displaced
[16] = system: ds26 (DNA, duplex) CAATCGGATCGAATTCGATCCGATTG; experiment: fluorescent intercalator displacement (FID); details: K+ 100 mM (TBS); 10 mM Tris, pH 7.35 (TBS as defined in Table 4); thiazole orange displaced
[17] = system: HTG21 (DNA, G4) GGGTTAGGGTTAGGGTTAGGG; experiment: fluorescent intercalator displacement (FID); details: K+ 100 mM (TBS); 10 mM Tris, pH 7.35 (TBS as defined in Table 4); thiazole orange displaced
[18] = system: Hep-G2 cells; experiment: Cellular uptake of metal by ICP-MS; format: cell-based, human; details: Hep-G2, 24 h; 3 5 μM, 6 14 μM, 7 16 μM, 8 10 μM, 10 12 μM, 11 6 μM, cisplatin 10 μM
Method: In order to understand the uptake and distribution of cisplatin, complexes 1–6, 7, 8, 10 and 11 in Hep-G2 cells, an ICP-MS assay was performed to quantify the amount of metal (Pt, Ni or Pd) taken up by the cells.

[19] = system: Hep-G2 cells; experiment: Distribution of metal in nuclear and mitochondrial fractions (ICP-MS); format: cell-based, human; details: Hep-G2, 24 h
Method: The distributions of metal (cisplatin, complexes 1–6, 7, 8, 10 and 11) in the nuclear fraction and mitochondrial fractions of Hep-G2 cells were studied after exposure of Hep-G2 cells to 1–6, 7, 8, 10, 11 and cisplatin for 24 h according to our previous reports. […] Taken together, their difference of metal (Pt, Ni or Pd) distribution for complexes 1–6, 7, 8, 10, 11 and cisplatin could be attributed to their differences in cytotoxicity and the apoptotic pathways in Hep-G2 cells.

[20] = system: human hepatoma (BEL-7402) xenograft; experiment: In vivo antitumor activity, BEL-7402 xenograft model; set-up: species or system nude mice; details: cisplatin, 2 mg/kg/2days ip; for Tumor Volume (end): day 18, 2 mg/kg
Method: Animal used, acute toxicity studies and antitumor activity toward BEL-7402 in vivo of complex 3 (16 and 8 mg/kg, two time a day,17 days (ip)), complex 6 (3.2 and 1.6 mg/kg/ day, 17 days) and cisplatin (2 mg/kg/2days), were similar to that reported by Chen[43][80]. BEL-7402 xenograft mouse models were purchased from Beijing HFK Bioscience Co., Ltd (Beijing, China, approval No. SCXK 2014-004). The animal procedures were approved by the Institute of Radiation Medicine Chinese Academy of Medical Sciences (Tian Jin, China, approval No. SYXK 2014-0002). And all of the experimental procedures were carried out in accordance with the NIH Guidelines for the Care and Use of Laboratory Animals. Animal experiments were approved by the Animal Care and Use Committee of Institute of Radiation Medicine Chinese Academy of Medical Sciences.

[21] = Body weight in the BEL-7402 xenograft study
Method: To investigate the efficacy of 3 to inhibit tumor growth in vivo, a mouse model of human hepatoma (BEL-7402) xenograft was used. The tumor-bearing nude mice received treatment when the tumor size was between 100 and 160 mm^3. The mice were treated with 3 at 16 and 8 mg/kg two times every day, and treatment of cisplatin with 2 mg/kg/2days as the positive control.
(1 picture or pasted object on this page, not shown here)

Compound: O=C1c2c(Cl)cc[c]3c2-c2c4c1cccc4cc[n+]2[Pt-2]31[NH2+]CCC[NH2+]1.[Cl-] (stereo not shown) [compound 9, [Pt(L^c)(pn)]Cl]
- IC50 [1]: 15.9 ± 2.11 µM
- Inhibitory rates (%) [1]: 58.11 ± 2.05%
- IC50 [2]: 80 ± 1.02 µM
- Inhibitory rates (%) [2]: 39.56 ± 1.01%
- IC50 [3]: 30.4 ± 1.19 µM
- Inhibitory rates (%) [3]: 36.74 ± 1.21%
- IC50 [4]: 25.1 ± 1.09 µM
- Inhibitory rates (%) [4]: 47.28 ± 1.07%
- IC50 [5]: 45 ± 0.86 µM
- Inhibitory rates (%) [5]: 40.64 ± 0.85%
- IC50 [6]: 25.2 ± 1.82 µM
- Inhibitory rates (%) [6]: 40.89 ± 1.79%

Compound: NCCN [en, 1,2-ethylenediamine, reference compound]
- Inhibitory rates (%) [1]: 13.64 ± 2.03%
- Inhibitory rates (%) [2]: 15.03 ± 0.65%
- Inhibitory rates (%) [3]: 18.42 ± 0.98%
- Inhibitory rates (%) [4]: 20.58 ± 1.66%
- Inhibitory rates (%) [6]: 16.45 ± 1.92%

Compound: [Cl][Pd][Cl] [PdCl2, reference compound]
- Inhibitory rates (%) [1]: 20.14 ± 1.18%
- Inhibitory rates (%) [2]: 18.24 ± 1.33%
- Inhibitory rates (%) [3]: 19.02 ± 1.04%
- Inhibitory rates (%) [4]: 9.91 ± 1.49%
- Inhibitory rates (%) [5]: 18.59 ± 1.77%
- Inhibitory rates (%) [6]: 15.05 ± 1.84%

Compound: CS(C)=O.O=C1c2c([c-]ccc2Cl)-c2nccc3cccc1c23.[Cl-].[Pt+2]
- Pu27DC50 [7]: 60.02
- c-kit-1DC50 [8]: 90.02
- c-kit-2DC50 [9]: 87.29
- Pu22DC50 [10]: 99.81
- HTG21DC50 [11]: 70.83
- ds26DC50 [12]: 96.11

Compound: COC1c2c([c-]ccc2Cl)-c2nccc3cccc1c23.CS(C)=O.[Cl-].[Pt+2] (stereo not shown)
- c-kit-2DC50 [9]: 79.69
- HTG21DC50 [11]: 55.16
- Pu27DC50 [13]: 33.15
- Pu22DC50 [14]: 74.91
- c-kit-1DC50 [15]: 79.95
- ds26DC50 [12]: 91.48

Compound: Nc1cccc2c1C(=O)c1cccc3ccnc-2c13.[Cl-].[Cl-].[Ni+2]
- ds26DC50 [16]: 70.46
- Pu27DC50 [7]: 14.22
- c-kit-1DC50 [8]: 73.65
- c-kit-2DC50 [9]: 45.30
- HTG21DC50 [17]: 26.45
- Pu22DC50 [10]: 90.18

Compound: N.N.[Cl][Pt][Cl] [Cisplatin, cisplatin, reference compound]
- IC50 [1]: 9.65 ± 0.87 µM
- Inhibitory rates (%) [1]: 68.71 ± 0.56%
- IC50 [2]: 12.3 ± 1.19 µM
- Inhibitory rates (%) [2]: 63.09 ± 1.35%
- IC50 [3]: 14.1 ± 1.07 µM
- Inhibitory rates (%) [3]: 58.06 ± 1.03%
- IC50 [4]: 18.1 ± 1.26 µM
- Inhibitory rates (%) [4]: 59.13 ± 1.35%
- IC50 [5]: 12.7 ± 0.94 µM
- Inhibitory rates (%) [5]: 65.82 ± 1.11%
- IC50 [6]: 16.3 ± 1.54 µM
- Inhibitory rates (%) [6]: 56.07 ± 1.67%
- cellular accumulation of metal (Pt) [18]: 4.89 ± 0.43 nmol platinum/10^6 cells
- distribution of metal in nuclear and mitochondrial fractions [19]: mainly accumulated in the mitochondrial fraction
- Tumor Volume (start) [20]: 104.79 ± 32.12 mm^3
- average tumor weight (mean ± SD g) [20]: 0.52 ± 0.29 g
- Tumor Volume (end) [20]: 566.82 ± 331.08 mm^3
- Tumor Volume (end) ([20]; listed as cisplatin): 566 mm^3
- inhibition of tumor growth (%) / Inhibition Ratio ([20]; tumor weight): 75.9%
- body weight loss during treatment (in words) ([21]; BEL-7402 xenograft mice): severe body weight loss
- Body Weight (end) ([21]; cisplatin, 2 mg/kg/2days ip): 19.6 ± 0.9 g
- Body Weight (start) ([21]; cisplatin, 2 mg/kg/2days ip): 22.5 ± 1.1 g
- RBW (%) (end) ([21]; cisplatin, 2 mg/kg/2days ip): 87.11 ± 4.8%

Compound: cis-Pt(DMSO)2Cl2 [reference compound]
- Inhibitory rates (%) [1]: 17.83 ± 0.57%
- Inhibitory rates (%) [2]: no activity
- Inhibitory rates (%) [3]: 15.11 ± 1.17%
- Inhibitory rates (%) [4]: no activity
- Inhibitory rates (%) [5]: 10.74 ± 0.95%
- Inhibitory rates (%) [6]: no activity

Compound: Nc1ccc2ccnc3c2c1C(=O)c1ccccc1-3.[Cl-].[Cl-].[Pd+2]
- Pu27DC50 [7]: 3.88
- c-kit-1DC50 [8]: 18.75
- c-kit-2DC50 [9]: 5.01
- Pu22DC50 [10]: 9.09
- HTG21DC50 [11]: 3.91
- ds26DC50 [12]: 21.76

Compound: O.O.O.O.O.O.[Cl][Ni][Cl] [NiCl2·6H2O, reference compound]
- Inhibitory rates (%) [1]: 15.06 ± 1.09%
- Inhibitory rates (%) [2]: 17.03 ± 1.16%
- Inhibitory rates (%) [3]: 20.88 ± 0.61%
- Inhibitory rates (%) [4]: 10.44 ± 1.82%
- Inhibitory rates (%) [5]: 11.28 ± 1.08%
- Inhibitory rates (%) [6]: 12.75 ± 1.09%

Compound: Nc1ccc2ccnc3c2c1C(=O)c1ccccc1-3.[Cl-].[Cl-].[Ni+2]
- Pu27DC50 [7]: 1.31
- c-kit-1DC50 [8]: 9.11
- c-kit-2DC50 [9]: 3.61
- Pu22DC50 [10]: 7.63
- HTG21DC50 [11]: 3.35
- ds26DC50 [12]: 37.01

Compound: Nc1cccc2c1C(=O)c1cccc3ccnc-2c13.[Cl-].[Cl-].[Pd+2]
- Pu27DC50 [7]: 42.51
- c-kit-1DC50 [8]: 78.46
- c-kit-2DC50 [9]: > 100
- Pu22DC50 [10]: 89.64
- HTG21DC50 [11]: 49.08
- ds26DC50 [12]: 90.63
